Data reported in US8518903B2, “Use of toll-like receptor-9 agonists” (University of Pittsburgh—of the Commonwealth System of …, priority 2007, dated 2013).

Key:
Assay type in all cases: cell-based
IEC-6 enterocytes = assay: Assessment of NFkB activation (nuclear:cytoplasmic ratio of p65) in IEC-6 enterocytes; settings: IEC-6 cells, LPS 50 μg/ml, CpG-DNA 1 μM, polymixin B 10 μg/ml, 1 hour
Protocol: FIG. 21. Nuclear:cytoplasmic ratio of NFκB, indicating the extent of translocation of NFκB into the nucleus, in IEC-6 cells which were either untreated (control); treated with LPS; treated with LPS and CpG; treated with LPS, CpG and polymixin B; treated with CpG; or treated with polymixin B. The concentrations used were LPS at […] CpG-DNA at 1 μM, and polymixin B at 10 μg/ml.
Assessment of NFkB activation. IEC-6 enterocytes were treated with LPS (50 μg/ml, Sigma-Aldrich, St. Louis, Mo.) and/or CpG-DNA (1 μM) either alone or in combination for 1 hour and immunostained with antibodies against the p65 subunit of NF-κB. Quantification of nuclear translocation was performed as adapted from Ding, et al. J Biol. Chem. 1998 Oct. 30; 273(44):28897-905. […] The average NF-κB p65 intensity of the cytoplasmic area was determined by subtracting the area and integrated intensity of the nuclear ROI from the nuclear+cytoplasmic ROI and dividing the cytoplasmic integrated intensity by the cytoplasmic area. The extent of p65 staining in the nucleus versus the cytoplasm (i.e. the nuclear to cytoplasmic ratio) was calculated for each cell by dividing the nuclear average NF-κB p65 intensity by the cytoplasmic average NF-κB p65 intensity. Nuclear to cytoplasmic ratio was calculated for more than 200 cells per treatment group for more than 4 separate experiments.

enterocytes = assay: Phosphorylated p38 and ERK in enterocytes exposed to LPS and CpG (Western blot)
Protocol: FIG. 6A-C. LPS signaling is attenuated by the TLR9 ligand CpG-DNA in enterocytes. (A) Comparison of phosphorylated p38 versus total p38 in a negative control, in the presence of 50 μg/ml LPS, in the presence of 50 μg/ml LPS and 10 μM CpG, and in the presence of 10 μM CpG. (B) Comparison of phosphorylated ERK versus total ERK in a negative control, in the presence of LPS, in the presence of LPS and CpG, and in the presence of CpG. (C) Bar graph showing the results of A.
A first series of experiments was designed to study the consequences of the TLR4 activator LPS and a CpG TLR9 agonist on the mediators of activated TLR4, p38 and ERK. Throughout this example section, the CpG used was CpG ODN, 5′-[…]-3′ (SEQ ID NO:6) P38 and ERK are both phosphorylated in their activated form. As shown in FIG. 6A-C, the relative levels of phosphorylated p38 and ERK increased when enterocytes were exposed to LPS.

IEC-6 cells = assay: TLR4 and TLR9 expression and distribution in enterocytes (Western blot, immunofluorescence)
Description: FIG. 12. TLR4 and TLR9 expression are unchanged by CpG-DNA and LPS in enterocytes. Western blot showing levels of TLR4 and TLR9 (relative to actin) in enterocytes which were either untreated (Ctrl) or treated with LPS, LPS+CpG, or CpG.
FIG. 13A-E. CpG-DNA causes a redistribution of TLR4 into internal structures in IEC-6 cells. Immunofluorescence studies showing TLR4 distribution in IEC-6 cells which were either untreated (A) or treated with (B) LPS; (C) LPS+CpG; or (D) CpG. (E) is a schematic drawing showing redistribution of TLR4 caused by TLR9.
FIG. 14A-D. LPS causes the internalization of TLR9, which is reversed by CpG-DNA. Immunofluoresence studies of IEC-6 cells showing TLR9 distribution in cells which were either (A) untreated; or treated with (B) LPS; (C) LPS+CpG; or (D) CpG.
Further experiments were performed to study the mechanism by which TLR9 suppresses the TLR4 activation.

With 5′-TCCATGACGTTCCTGACGTT-3′ [CpG-DNA] the “LPS-induced translocation of NFκB into the nucleus (nuclear:cytoplasmic ratio)” value (IEC-6 enterocytes) was “significantly inhibited translocation”, the “relative level of phosphorylated p38 (increase caused by LPS)” value (enterocytes; 50 μg/ml LPS + 10 μM CpG vs LPS alone) was “significantly less” and the “relative level of phosphorylated ERK (increase caused by LPS)” value (enterocytes; LPS + CpG vs LPS alone) was “significantly less”. The “LPS-caused internalization of TLR9” value (IEC-6 cells; IEC-6 cells, LPS + CpG) was “reversed”, the TLR4 distribution (IEC-6 cells; IEC-6 cells, immunofluorescence) was “causes a redistribution of TLR4 into internal enterocyte structures” and the “TLR4 and TLR9 expression” value (IEC-6 cells; enterocytes treated with CpG-DNA and LPS) was “unchanged”.
